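Five concentrations, 48 hours, 96-well plates. Abbreviation: GI50, concentration required for 50% inhibition of growth. TGI is the concentration that stops growth completely.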
Experiments:
Assay in all cases: NCI-60 cell line screen, 48 h
[1] = test system: SK-OV-3 ovarian
[2] = test system: UO-31 renal
[3] = test system: DU-145 prostate
[4] = test system: HL-60(TB) leukemia
[5] = test system: HT29 colon
[6] = test system: BT-549 breast
[7] = test system: MDA-MB-435
[8] = test system: SNB-19 CNS
[9] = test system: UACC-257 melanoma
[10] = test system: KM12 colon
[11] = test system: CAKI-1 renal
[12] = test system: CCRF-CEM leukemia
[13] = test system: MOLT-4 leukemia
[14] = test system: 786-0 renal
[15] = test system: NCI-H522 lung
[16] = test system: SR leukemia
[17] = test system: ACHN renal
[18] = test system: SK-MEL-5 melanoma
[19] = test system: SF-539 CNS
[20] = test system: SK-MEL-2 melanoma
[21] = test system: IGROV1 ovarian
[22] = test system: K-562 leukemia
[23] = test system: SN12C renal
[24] = test system: MALME-3M melanoma
[25] = test system: MDA-MB-231 breast
[26] = test system: HCT-116 colon
[27] = test system: OVCAR-8 ovarian
[28] = test system: SF-268 CNS
[29] = test system: OVCAR-3 ovarian
[30] = test system: HCC-2998 colon
[31] = test system: EKVX NSCLC
[32] = test system: NCI/ADR-RES ovarian
[33] = test system: RXF 393 renal
[34] = test system: NCI-H226 lung
[35] = test system: HOP-62 NSCLC
[36] = test system: A498 renal
[37] = test system: HCT-15 colon
[38] = test system: A549 NSCLC
[39] = test system: OVCAR-5 ovarian
[40] = test system: SW-620 colon
[41] = test system: HS 578T breast
[42] = test system: M14 melanoma
[43] = test system: UACC-62 melanoma
[44] = test system: MCF7 breast
[45] = test system: SK-MEL-28 melanoma
[46] = test system: RPMI-8226 leukemia
[47] = test system: HOP-92 NSCLC
[48] = test system: SF-295 CNS
[49] = test system: TK-10 renal
[50] = test system: PC-3 prostate
[51] = test system: LOX IMVI melanoma
[52] = test system: OVCAR-4 ovarian
[53] = test system: U251 CNS
[54] = test system: SNB-75 CNS
[55] = test system: NCI-H23 lung
[56] = test system: T-47D breast
[57] = test system: COLO 205 colon
[58] = test system: NCI-H460 lung

Work on CN1CCN(Cc2ccc(-c3cc4ncnc(Nc5ccc(OCc6cccc(F)c6)c(Cl)c5)c4s3)o2)CC1 yielded a GI50 [1] of 4.67 µM, a TGI [1] of 9.97 µM and a GI50 [2] of 3.3 µM. It also gave a TGI [2] of 7.37 µM, a GI50 [3] of 4.03 µM and a TGI [3] of 7.47 µM. It also gave a GI50 [4] of 4.62 µM, a TGI [4] of 9.34 µM and a GI50 [5] of 1.38 µM. It also gave a TGI [5] of 4.3 µM, a GI50 [6] of 4.41 µM and a TGI [6] of 8.91 µM. It also gave a GI50 [7] of 4.68 µM, a TGI [7] of 10.4 µM and a GI50 [8] of 4.8 µM. The TGI [8] was 9.86 µM, the GI50 [9] was 4.26 µM and the TGI [9] was 8.37 µM. The GI50 [10] was 4.44 µM, the TGI [10] was 8.19 µM and the GI50 [11] was 3.33 µM. The TGI [11] was 7.98 µM, the GI50 [12] was 3.81 µM and the TGI [12] was 9.18 µM. The GI50 [13] was 4.47 µM, the TGI [13] was 9.39 µM and the GI50 [14] was 4.47 µM. It also gave a TGI [14] of 8.95 µM, a GI50 [15] of 4.75 µM and a TGI [15] of 9.46 µM. It also gave a GI50 [16] of 4.43 µM, a TGI [16] of 10 µM and a GI50 [17] of 3.26 µM. For the same compound, the TGI [17] was 6.95 µM, the GI50 [18] was 3.77 µM and the TGI [18] was 7.54 µM. For the same compound, the GI50 [19] was 4.17 µM, the TGI [19] was 8.55 µM and the GI50 [20] was 5.33 µM. For the same compound, the TGI [20] was 10.2 µM, the GI50 [21] was 3.51 µM and the TGI [21] was 8.34 µM. For the same compound, the GI50 [22] was 2.08 µM, the TGI [22] was 6.85 µM and the GI50 [23] was 3.79 µM. It also gave a TGI [23] of 7.85 µM, a GI50 [24] of 4.56 µM and a TGI [24] of 9.69 µM. It also gave a GI50 [25] of 4.56 µM, a TGI [25] of 9.01 µM and a GI50 [26] of 3.62 µM. The TGI [26] was 7.42 µM, the GI50 [27] was 4.53 µM and the TGI [27] was 9.62 µM. The GI50 [28] was 4.07 µM, the TGI [28] was 8.7 µM and the GI50 [29] was 4.23 µM. The TGI [29] was 8.01 µM, the GI50 [30] was 4.24 µM and the TGI [30] was 7.99 µM. For the same compound, the GI50 [31] was 2.95 µM, the TGI [31] was 8.78 µM and the GI50 [32] was 4.32 µM. For the same compound, the TGI [32] was 9.32 µM, the GI50 [33] was 3.33 µM and the TGI [33] was 7.52 µM. The GI50 [34] was 4.39 µM, the TGI [34] was 10.4 µM and the GI50 [35] was 4.64 µM. For the same compound, the TGI [35] was 9.12 µM, the GI50 [36] was 3.5 µM and the TGI [36] was 7.57 µM. The GI50 [37] was 2.92 µM, the TGI [37] was 6.39 µM and the GI50 [38] was 3.2 µM. The TGI [38] was 6.92 µM, the GI50 [39] was 3.91 µM and the TGI [39] was 7.8 µM. It also gave a GI50 [40] of 4.66 µM, a TGI [40] of 8.64 µM and a GI50 [41] of 5.57 µM. For the same compound, the TGI [41] was 12.7 µM, the GI50 [42] was 4.63 µM and the TGI [42] was 8.81 µM. It also gave a GI50 [43] of 4.97 µM, a TGI [43] of 9.58 µM and a GI50 [44] of 3.86 µM. The TGI [44] was 7.81 µM, the GI50 [45] was 4.08 µM and the TGI [45] was 7.61 µM. The GI50 [46] was 3.91 µM, the TGI [46] was 9.52 µM and the GI50 [47] was 2.76 µM. The TGI [47] was 6.51 µM, the GI50 [48] was 5.06 µM and the TGI [48] was 10.4 µM. For the same compound, the GI50 [49] was 3.02 µM, the TGI [49] was 6.64 µM and the GI50 [50] was 4.13 µM. For the same compound, the TGI [50] was 8.17 µM, the GI50 [51] was 3.66 µM and the TGI [51] was 8.07 µM. It also gave a GI50 [52] of 3.69 µM, a TGI [52] of 7.5 µM and a GI50 [53] of 3.34 µM. It also gave a TGI [53] of 7.12 µM, a GI50 [54] of 4.29 µM and a TGI [54] of 9.11 µM. The GI50 [55] was 4.29 µM, the TGI [55] was 8.44 µM and the GI50 [56] was 4.12 µM. The TGI [56] was 9.06 µM, the GI50 [57] was 4.8 µM and the TGI [57] was 8.66 µM. It also gave a GI50 [58] of 4.56 µM and a TGI [58] of 8.85 µM.
